Laboratory results as given in US6544987B2, “Compounds, compositions, and methods for stimulating neuronal growth and elongation” (Pfizer Inc., priority 1999, dated 2003).
Several values for one entry are separate records, joined by “and”; a condition that tells them apart may be missing. Identical values can stand only once.

Columns and labels:
[1] = tested on: PC12 rat pheochromocytoma cells; test: Neurite outgrowth activity in PC12 rat pheochromocytoma assay; assay type: cell-based; conditions: PC-12 cells; active concentration range
Experimental: For example, compounds may be tested to determine their neurotrophic activity using the method described by Lyons et al., Proc. Natl. Acad. Sci., 91:3191-3195 (1994). In this rat pheochromocytoma assay for neurite outgrowth, PC12 rat pheochromocytoma cells are maintained at 37° C. and 5% CO2 in Dulbecco's modified Eagle's medium (DMEM) supplemented with 10% heat-inactivated horse serum and 5% heat-inactivated fetal bovine serum. Cells are then plated, coated at 10^5 per 35 mm culture well with rat tail collagen at […], and allowed to attach. Medium is then replaced with DMEM supplemented with 2% horse serum, 1% fetal bovine serum, nerve growth factor (NGF), and/or varying concentrations of test compounds. The control cultures are administered NGF without any of the test compounds.

FKBP12 [2] = target: T1, FKBP12 (Homo sapiens, UniProt P62942); test: Rotamase inhibition assay (N-succinyl-Ala-Ala-Pro-Phe-p-nitroanilide, chymotrypsin-coupled); assay type: biochemical; conditions: Table 1; read-out: Rotamase Ki(app)
T1 sequence (P62942 whole entry, species assumed): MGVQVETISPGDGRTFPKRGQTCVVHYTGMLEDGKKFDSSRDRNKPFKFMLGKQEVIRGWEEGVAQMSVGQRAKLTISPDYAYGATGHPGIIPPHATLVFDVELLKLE
Experimental: In the rotamase inhibition assay, isomerization of an artificial substrate N-succinyl-Ala-Ala-Pro-Phe-p-nitroanilide is followed spectrophotometrically. The assay includes the cis form of the substrate, FKBP12, the compound being tested, and chymotrypsin. Chymotrypsin is able to cleave p-nitroaniline from the trans form of the substrate, but not from the cis form. Release of p-nitroaniline is measured spectrophotometrically. Using this assay, various amounts of the FKBP rotamase-inhibiting compounds of formula (I) were added to cis-N-succinyl-alanine-alanine-proline-phenylalanine-para-nitroaniline (BACHEM, 3132 Kashiwa Street, Torrance, Calif. 90505) in the presence of FKBP12 and chymotrypsin. Spectrophotometric measurements of p-nitroaniline concentrations allowed estimation of the apparent Ki values, which are provided in Table 1 below.

FKBP12 [3] = target: T1, FKBP12; test: Binding to FKBP by microcalorimetry
Experimental: Binding of compounds to FKBP may be measured directly using microcalorimetry. Calorimetric titrations are carried out using the MCS-ITC instrument (MicroCal Inc., Northhampton, Mass.). The titrations may be conducted as follows. Protein dialysate is degassed for 15 minutes using MicroCal equipment. Stock inhibitor solution is added to co-solvent (typically DMSO) and degassed dialysate, followed by brief sonication, to produce the final inhibitor solutions to be used in the titrations. Final inhibitor solutions are in the concentration range 10 to 80 μM. Dialyzed protein is added to co-solvent and degassed dialysate to produce FKBP12 solutions in the concentration range 200 to 1600 μM. As both solutions are prepared using degassed dialysate, no additional degassing of the solutions is performed. Co-solvent is added to the protein solutions to maintain a fixed co-solvent concentration throughout the course of the titration. Protein is titrated into inhibitor using a 125-μL injection syringe. The titrations are conducted with the ligand in the cell due to low solubility of inhibitors. Typically, a preliminary 2-μL injection is followed by fifteen 8-μL injections made at varying injection intervals. A full set of dilution controls is conducted for each titration. An appropriate volume of co-solvent is added to degassed dialysate to produce the buffered co-solvent solution used to obtain heats of dilution of the reactants. After correcting for the heats of dilution and deletion of the preliminary injection, the titration results are fitted using the “One Set of Sites Model” in the ORIGIN software package supplied with the instrument.

FKBP12 [4] = target: T1, FKBP12; test: Affinity for FKBP-12 (Ki), succinyl-Ala-Leu-Pro-Phe-pNA chymotrypsin-coupled assay; assay type: biochemical; parameters: key to FKBP12 inhibition (in Kiapps column): NI: no inhibition; NSI: no significant inhibition; conditions: for Ki: Table 2, read-out: FKBP12 Kiapps
[5] = Solubility noted in FKBP12 assay table; assay type: physicochemical; conditions: read-out: Sol (solubility)

| SMILES | Neurite-Outgrowth Activity (PC-12) [1] [µM] | Ki (FKBP12 [2]) [nM] | Kd (FKBP12 [3]) [nM] | Ki (FKBP12 [4]) | solubility [5] [µM] | FKBP12 inhibition (in Kiapps column) (FKBP12 [4]; at 1 μM) |
| --- | --- | --- | --- | --- | --- | --- |
| COc1cc(NS(=O)(=O)N2CCCC[C@H]2C(=O)OCCCCc2ccccc2)cc(OC)c1OC [Compound 25, 1-(3,4,5-Trimethoxy-phenylsulfamoyl)-piperidine-2S-carboxylic acid 4-phenyl-butyl ester] | 0.001 to 1 | 200 | 1200 | 200 nM and 180 nM |  |  |
| CCC(C)(C)NS(=O)(=O)N1CCCC[C@H]1C(=O)OCCCCc1ccccc1 [Compound 26, 1-(1,1-Dimethyl-propylsulfamoyl)-piperidine-2S-carboxylic acid 4-phenyl-butyl ester] |  | 193 |  | 193 nM and 218 nM |  |  |
| CCC(C)(C)NS(=O)(=O)N1CCC[C@H]1C(=O)OCCCc1cccnc1 [Compound 31, 1-(1,1-Dimethyl-propylsulfamoyl)-pyrrolidine-2S-carboxylic acid 3-pyridin-3-yl-propyl ester] | 0.001 to 1 | 2790 | 4500 | 2790 nM and 1100 nM |  |  |
| O=C(OCCCc1cccnc1)[C@@H]1CCCN1S(=O)(=O)Nc1ccccc1 [Compound 33, 1-Phenylsulfamoyl-pyrrolidine-2S-carboxylic acid 3-pyridin-3-yl-propyl ester] | 0.001 to 1 |  | 14000 | 3960 nM |  |  |
| COc1cc(NS(=O)(=O)N2[C@@H]3CC[C@@H](C3)[C@H]2C(=O)OCCCCc2ccccc2)cc(OC)c1OC [Compound 84, 2-(3,4,5-Trimethoxy-phenylsulfamoyl)-2-aza-bicyclo[2.2.1]heptane-exo-3-carboxylic acid 4-phenyl-butyl ester] |  |  |  |  | < 30 | NI |
